Test results taken from EP4603105A1, “PHARMACEUTICAL COMPOSITION CONTAINING CYCLIC COMPOUND HAVING SELECTIVE KRAS INHIBITORY EFFECT AGAINST HRAS AND NRAS” (CHUGAI SEIYAKU KABUSHIKI KAISHA, priority 2022, dated 2024).
pIC50: −log10 of the molar value. *1 amine or outer side, *2 acyl side, *3 side chain or, on linkers, in order; H or OH if unused. Where a SMILES comes first, the peptide text is derived from it. Bridges are numbered along the chain shown (N, C = ends). [ ]: non-standard residue; d: D form. The star is where a group is joined. hPhe(3-Cl-4-CF3) = N[C@@H](CCc1ccc(C(F)(F)F)c(Cl)c1)C(=O)O; NPrPhe(4-CF3) = CCCN[C@@H](Cc1ccc(C(F)(F)F)cc1)C(=O)O; X30 = CCN([C@H](C(=O)[*:2])C1CCCC1)[*:1]; NMeGly(cPent) = CN[C@H](C(=O)O)C1CCCC1; NMeGly(cBu) = CN[C@H](C(=O)O)C1CCC1; Hyp = O=C(O)[C@@H]1C[C@@H](O)CN1; NMeD = CN[C@@H](CC(=O)O)C(=O)O; NMeL = CN[C@@H](CC(C)C)C(=O)O; Morpholide = C1CN(*)CCO1; Ac5c = NC1(C(=O)O)CCCC1; Ac4c = NC1(C(=O)O)CCC1; Sar = CNCC(=O)O

What was measured:
HRAS wild-type protein = HRAS wild-type protein (Homo sapiens, UniProt P01112); experiment: Binding to HRAS by surface plasmon resonance (SPR), KD and KD ratio to KRAS
Sequence of HRAS wild-type protein (P01112 whole entry): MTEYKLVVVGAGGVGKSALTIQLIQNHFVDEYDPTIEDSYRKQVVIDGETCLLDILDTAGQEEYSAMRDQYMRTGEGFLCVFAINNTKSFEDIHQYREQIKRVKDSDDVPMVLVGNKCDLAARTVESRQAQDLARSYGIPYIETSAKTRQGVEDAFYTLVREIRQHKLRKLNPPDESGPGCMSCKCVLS
Method: (§1) Surface plasmon resonance was used to analyze the binding affinity of compounds for KRAS, NRAS, and HRAS. The apparatus used was Biacore 8K, 8K+, or T200 (GE Healthcare), and the running buffer used was HBS (10 mM HEPES-NaOH, 150 mM NaCl, pH 7.4) containing 1 mM DTT, 10 mM MgCl2, 0.01% Tween 20, 10 µM GDP, and 4% DMSO.
(§2) Biotinylated Avi-tag fusion KRAS, NRAS, and HRAS proteins were expressed in E. coli BL21 (DE3) strains, and after cells were homogenized, they were purified using Streptavidin Mutein Matrix and Superdex 75. After purification, GDP-loaded KRAS, NRAS, and HRAS proteins were immobilized on the surface of Sensor Chip CAP (Cytiva) coated with Biotin CAPture Reagent in an immobilization amount of about 100 to 300 RU. Binding of each compound was evaluated by the Single Cycle Kinetics method, and a running buffer or a compound solution was added to the RAS protein non-immobilized surface and the immobilized surface to obtain a binding response. The flow rate was set to 100 µL/min, and in the compound-adding cycle, compound solutions having different concentrations were intermittently added for 75 seconds each, starting from a low concentration. […] In the blank cycle, a running buffer was intermittently added and not the compound solution. The Biotin CAPture Reagent and RAS proteins were immobilized for each cycle, and at the end of each cycle, the sensor chip was regenerated by the regeneration solution appended to the Biotin CAPture Kit (Cytiva). Measurement was carried out at 30°C.
(§3) The resulting sensorgram was subjected to curve fitting based on a 1:1 binding model on Biacore Insight Evaluation Software or T200 Evaluation Software, and thereby the dissociation constant KD of each compound with respect to KRAS, NRAS, and HRAS was determined. […] Blank indicates a compound from which the KD value with respect to NRAS or HRAS was not obtained.

[1] = biological target: GDP-bound NRAS wild-type protein (Homo sapiens, UniProt P01111); experiment: Binding to NRAS by surface plasmon resonance (SPR), KD and KD ratio to KRAS
Sequence of GDP-bound NRAS wild-type protein (P01111 whole entry): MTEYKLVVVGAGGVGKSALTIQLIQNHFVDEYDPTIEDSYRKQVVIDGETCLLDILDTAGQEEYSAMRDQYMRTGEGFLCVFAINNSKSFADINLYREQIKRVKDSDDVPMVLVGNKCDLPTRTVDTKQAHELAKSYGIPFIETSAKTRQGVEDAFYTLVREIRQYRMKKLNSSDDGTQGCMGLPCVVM
Method: as §1, §2, §3

[2] = test system: human lung cancer strain NCI-H441; assay type: cell-based
Procedure, shortened: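 Readout: […] after the ATP-based reagent. Compound: serial dilutions in dimethyl sulfoxide.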

[3] = ratio of KD for HRAS wild-type protein to KD for KRAS
[4] = ratio of KD for GDP-bound NRAS wild-type protein to KD for KRAS
[5] = ratio of the KD value with respect to HRAS wild-type protein to the KD value with respect to KRAS
[6] = ratio of the KD value with respect to GDP-bound NRAS wild-type protein to the KD value with respect to KRAS
[7] = ratio of KD value for HRAS wild-type protein to KD value for KRAS (SPR)
[8] = ratio of KD value for GDP-bound NRAS wild-type protein to KD value for KRAS (SPR)

CCC[C@H]1C(=O)N[C@@H]([C@@H](C)CC)C(=O)N(C)CC(=O)N(C)[C@H]2C/C=C\CCN(C2=O)[C@@H](Cc2ccc(C)cc2)C(=O)N(C)CC(=O)N[C@@H](CCc2cc(F)c(C(F)(F)F)c(F)c2)C(=O)N2C[C@H](OCC)C[C@H]2C(=O)N(C)C2(CCC2)C(=O)N(C)[C@@H](C2CCCC2)C(=O)N(C)[C@H](C(=O)N2CCCC2)CC(=O)N1C [PP3121]
HRAS /KRAS (HRAS wild-type protein; [3]): A (a compound having 10 or more and less than 20 is denoted as A)
NRAS /KRAS [1, 4]: A (a compound having 10 or more and less than 20 is denoted as A)
pIC50 [2]: 8.82

CCC[C@H]1C(=O)N[C@@H]([C@@H](C)CC)C(=O)N(C)CC(=O)N(C)[C@H]2C/C=C\CCN(C2=O)[C@@H](Cc2ccc(C(F)(F)F)cc2)C(=O)N(C)CC(=O)N[C@@H](CCc2ccc(C(F)(F)F)c(Cl)c2)C(=O)N2C[C@H](OCC)C[C@H]2C(=O)NC2(CC(C)(C)C2)C(=O)N(C)[C@@H]([C@@H](C)CC)C(=O)N(C)[C@H](C(=O)N(C)C)CC(=O)N1C [PP2973]
HRAS /KRAS (HRAS wild-type protein; [3]): A (a compound having 10 or more and less than 20 is denoted as A)
NRAS /KRAS [1, 4]: A (a compound having 10 or more and less than 20 is denoted as A)
pIC50 [2]: 8.10

CCCN1C(=O)CN(C)C(=O)CN(C)C(=O)[C@H]([C@@H](C)CC)NC(=O)[C@H](C2CCC2)N(C)C(=O)C[C@@H](C(=O)N2CCOCC2)N(C)C(=O)[C@H](C2CCCC2)N(C)C(=O)C2(CCCC2)NC(=O)[C@@H]2CCCN2C(=O)[C@H](CCc2ccc(C(F)(F)F)c(Cl)c2)NC(=O)CN(C)C(=O)[C@@H]1Cc1ccc(C(F)(F)F)cc1 [PP0188] ([NMeGly(cBu)]I[Sar][Sar][NPrPhe(4-CF3)][Sar][hPhe(3-Cl-4-CF3)]P[Ac5c][NMeGly(cPent)][NMeD]-Morpholide; lactam N-11)
HRAS /KRAS (HRAS wild-type protein; [3]): C (A compound having a KD ratio of 0.1 or more and less than 3 is denoted as C)
NRAS /KRAS [1, 4]: B (a compound having 3 or more and less than 10 is denoted as B)
pIC50 [2]: 8.41

CC[C@H](C)[C@@H]1NC(=O)[C@H](CC(C)C)N(C)C(=O)C[C@@H](C(=O)N2CCOCC2)N(C)C(=O)[C@H](C2CCCC2)N(C)C(=O)C2(CCCC2)NC(=O)[C@@H]2CCCN2C(=O)[C@H](CCc2ccc(C(F)(F)F)c(Cl)c2)NC(=O)CN(C)C(=O)[C@H](Cc2ccc(OC(F)(F)F)cc2)N2CCCCC[C@@H](C2=O)N(C)C(=O)CN(C)C1=O [PP0615]
HRAS /KRAS (HRAS wild-type protein; [5]): B (a compound having 3 or more and less than 10 is denoted as B)
NRAS /KRAS [1, 6]: B (a compound having 3 or more and less than 10 is denoted as B)
pIC50 [2]: 6.66

CC[C@H](C)[C@@H]1NC(=O)[C@H](CC2CC2)N(C)C(=O)C[C@@H](C(=O)N(C)C)N(C)C(=O)[C@H](C2CCCC2)N(C)C(=O)C2(CCC2)NC(=O)[C@@H]2C[C@@H](C(F)(F)F)CN2C(=O)[C@H](CCc2cc(F)c(C(F)(F)F)c(F)c2)NC(=O)CN(C)C(=O)[C@H](Cc2ccc(C(F)(F)F)cc2)N2CC/C=C\C[C@@H](C2=O)N(C)C(=O)CN(C)C1=O [PP1498]
HRAS /KRAS (HRAS wild-type protein; [7]): A (a compound having 10 or more and less than 20 is denoted as A)
NRAS /KRAS [1, 8]: A (a compound having 10 or more and less than 20 is denoted as A)
pIC50 [2]: 7.99

CCC[C@H]1C(=O)N[C@@H]([C@@H](C)CC)C(=O)N(C)CC(=O)N(C)[C@H]2C/C=C\CCN(C2=O)[C@@H](Cc2ccc(C)cc2)C(=O)N(C)CC(=O)N[C@@H](CCc2cc(F)c(C(F)(F)F)c(F)c2)C(=O)N2CC3(CC3)C[C@H]2C(=O)NC2(CC(C)(C)C2)C(=O)N(C)[C@@H](CC(C)(C)C)C(=O)N(C)[C@H](C(=O)N(C)C)CC(=O)N1C [PP2997]
HRAS /KRAS (HRAS wild-type protein; [3]): B (a compound having 3 or more and less than 10 is denoted as B)
NRAS /KRAS [1, 4]: A (a compound having 10 or more and less than 20 is denoted as A)
pIC50 [2]: 8.39

CCCN1C(=O)CN(C)C(=O)CN(C)C(=O)[C@H]([C@@H](C)CC)NC(=O)[C@H](CC(C)C)N(C)C(=O)C[C@@H](C(=O)N2CCOCC2)N(C)C(=O)[C@H](C2CCCC2)N(C)C(=O)C2(CCCC2)NC(=O)[C@@H]2C[C@@H](O)CN2C(=O)[C@H](CCc2ccc(C(F)(F)F)c(Cl)c2)NC(=O)CN(C)C(=O)[C@@H]1Cc1ccc(C(F)(F)F)cc1 [PP0241] ([NMeL]I[Sar][Sar][NPrPhe(4-CF3)][Sar][hPhe(3-Cl-4-CF3)][Hyp][Ac5c][NMeGly(cPent)][NMeD]-Morpholide; lactam N-11)
HRAS /KRAS (HRAS wild-type protein; [3]): C (A compound having a KD ratio of 0.1 or more and less than 3 is denoted as C)
NRAS /KRAS [1, 4]: B (a compound having 3 or more and less than 10 is denoted as B)
pIC50 [2]: 8.31

CCO[C@@H]1C[C@H]2C(=O)NC3(CCC3)C(=O)N(C)[C@@H](C3CCCC3)C(=O)N(C)C(C(C)C)CC(=O)N(C)[C@@H](CC)C(=O)N[C@@H]([C@@H](C)CC)C(=O)N(C)CC(=O)N(C)[C@H]3C/C=C\CCN(C3=O)[C@@H](Cc3ccc(C(F)(F)F)cc3)C(=O)N(C)CC(=O)N[C@@H](CCc3cc(F)c(C(F)(F)F)c(F)c3)C(=O)N2C1 (stereo partly drawn) [PP1590]
HRAS /KRAS (HRAS wild-type protein; [7]): B (a compound having 3 or more and less than 10 is denoted as B)
NRAS /KRAS [1, 8]: A (a compound having 10 or more and less than 20 is denoted as A)
pIC50 [2]: 8.10

CCO[C@@H]1C[C@H]2C(=O)NC3(CCC3)C(=O)N(C)[C@@H](C3CCCC3)C(=O)N(C)[C@H](C(=O)N(C)C)CC(=O)N(C)[C@@H](CC)C(=O)N[C@@H]([C@@H](C)CC)C(=O)N(CC)CC(=O)N(C)[C@H]3C/C=C\CCN(C3=O)[C@@H](Cc3ccc(C(F)(F)F)cc3)C(=O)N(C)CC(=O)N[C@@H](CCc3cc(F)c(C(F)(F)F)c(F)c3)C(=O)N2C1 [PP1052]
HRAS /KRAS (HRAS wild-type protein; [3]): A (a compound having 10 or more and less than 20 is denoted as A)
NRAS /KRAS [1, 4]: A (a compound having 10 or more and less than 20 is denoted as A)
pIC50 [2]: 7.23

C=CCN1CC(=O)N(C)[C@H]2C/C=C\CCN(C2=O)[C@@H](Cc2ccc(C)cc2)C(=O)N(C)CC(=O)N[C@@H](CCc2ccc(C(F)(F)F)c(OC)c2)C(=O)N2C[C@H](OCC)C[C@H]2C(=O)NC2(CC(C)(C)C2)C(=O)N(C)[C@@H](C2CCCC2)C(=O)N(C)[C@H](C(=O)N(C)C)CC(=O)N(C)[C@@H](CCC)C(=O)N[C@@H]([C@@H](C)CC)C1=O [PP2098]
HRAS /KRAS (HRAS wild-type protein; [5]): A (a compound having 10 or more and less than 20 is denoted as A)
NRAS /KRAS [1, 6]: A (a compound having 10 or more and less than 20 is denoted as A)
pIC50 [2]: 8.08

CCCN1C(=O)CN(C)C(=O)CN(C)C(=O)[C@H]([C@@H](C)CC)NC(=O)[C@H](CC(C)C)N(C)C(=O)C[C@@H](C(=O)N2CCOCC2)N(C)C(=O)[C@H](C2CCCC2)N(CC)C(=O)C2(CCC2)NC(=O)[C@@H]2CCCN2C(=O)[C@H](CCc2ccc(C(F)(F)F)c(Cl)c2)NC(=O)CN(C)C(=O)[C@@H]1Cc1ccc(C(F)(F)F)cc1 [PP1952] ([NMeL]I[Sar][Sar][NPrPhe(4-CF3)][Sar][hPhe(3-Cl-4-CF3)]P[Ac4c][X30][NMeD]-Morpholide; lactam N-11)
HRAS /KRAS (HRAS wild-type protein; [5]): B (a compound having 3 or more and less than 10 is denoted as B)
NRAS /KRAS [1, 6]: B (a compound having 3 or more and less than 10 is denoted as B)
pIC50 [2]: 7.85

CCCN(C)C(=O)[C@@H]1CC(=O)N(C)[C@@H](CC(F)F)C(=O)N[C@@H]([C@@H](C)CC)C(=O)N(C)CC(=O)N(C)[C@H]2C/C=C\CCN(C2=O)[C@@H](Cc2ccc(C(F)(F)F)cc2)C(=O)N(C)CC(=O)N[C@@H](CCc2cc(F)c(C(F)(F)F)c(F)c2)C(=O)N2C[C@H](F)C[C@H]2C(=O)NC2(CC(C)(C)C2)C(=O)N(C)[C@@H](C2CCCC2)C(=O)N1C [PP1687]
HRAS /KRAS (HRAS wild-type protein; [7]): A (a compound having 10 or more and less than 20 is denoted as A)
NRAS /KRAS [1, 8]: A (a compound having 10 or more and less than 20 is denoted as A)
pIC50 [2]: 8.57

CC[C@H](C)[C@@H]1NC(=O)[C@H](CC(C)C)N(C)C(=O)C[C@@H](C(=O)N2CCOCC2)N(C)C(=O)[C@H](C2CCCC2)N(C)C(=O)C2(CCC2)NC(=O)[C@@H]2CCCN2C(=O)[C@H](CCc2cc(F)c(C(F)(F)F)c(F)c2)NC(=O)CN(C)C(=O)[C@H](Cc2ccc(C(F)(F)F)cc2)N2CCCCC[C@@H](C2=O)N(C)C(=O)CN(C)C1=O [PP0497]
HRAS /KRAS (HRAS wild-type protein; [5]): B (a compound having 3 or more and less than 10 is denoted as B)
NRAS /KRAS [1, 6]: B (a compound having 3 or more and less than 10 is denoted as B)
pIC50 [2]: 7.35
